According to patent publication US12162858B2, “Quinoline derivatives as inhibitors of AXL/MER RTK and CSF1R” (QURIENT CO., LTD., priority 2018, dated 2024):

Experiments:
Mer = target: T1, Mer (Homo sapiens, UniProt Q12866); experiment: LanthaScreen Eu kinase binding assay for Mer; conditions: read-out: Mer kinase binding activity (Kd)
T1 construct: purchased Life Technologies
T1 sequence (Q12866 21-999): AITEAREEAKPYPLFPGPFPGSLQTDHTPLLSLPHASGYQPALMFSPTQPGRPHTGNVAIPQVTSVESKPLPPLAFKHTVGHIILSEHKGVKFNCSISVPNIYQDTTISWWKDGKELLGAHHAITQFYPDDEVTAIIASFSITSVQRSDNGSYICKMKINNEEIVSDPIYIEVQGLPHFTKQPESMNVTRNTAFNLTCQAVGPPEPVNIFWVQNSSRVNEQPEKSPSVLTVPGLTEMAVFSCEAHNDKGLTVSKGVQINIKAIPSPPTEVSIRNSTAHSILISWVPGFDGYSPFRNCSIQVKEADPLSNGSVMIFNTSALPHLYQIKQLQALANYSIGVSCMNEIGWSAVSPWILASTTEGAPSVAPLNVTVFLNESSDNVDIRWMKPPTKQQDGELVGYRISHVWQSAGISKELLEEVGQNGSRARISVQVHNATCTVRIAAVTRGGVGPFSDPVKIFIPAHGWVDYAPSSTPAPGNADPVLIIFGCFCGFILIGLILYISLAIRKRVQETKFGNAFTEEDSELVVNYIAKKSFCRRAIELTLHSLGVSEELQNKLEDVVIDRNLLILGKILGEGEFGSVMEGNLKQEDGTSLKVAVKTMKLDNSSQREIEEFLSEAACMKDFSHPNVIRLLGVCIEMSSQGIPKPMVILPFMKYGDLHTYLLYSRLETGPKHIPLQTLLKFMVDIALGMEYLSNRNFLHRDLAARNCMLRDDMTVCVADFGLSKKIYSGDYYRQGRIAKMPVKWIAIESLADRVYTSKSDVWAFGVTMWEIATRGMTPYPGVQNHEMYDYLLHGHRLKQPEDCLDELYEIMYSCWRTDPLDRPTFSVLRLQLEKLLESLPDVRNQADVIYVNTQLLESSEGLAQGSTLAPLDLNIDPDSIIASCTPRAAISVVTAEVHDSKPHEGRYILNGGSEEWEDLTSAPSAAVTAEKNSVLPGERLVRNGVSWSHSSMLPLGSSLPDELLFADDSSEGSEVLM
Experimental: LanthaScreen® Eu Kinase Binding assays were conducted at Life Technologies using the manufacturer's specifications for each kinase indicated.
Briefly, the principle behind this assay is based upon the binding and displacement of an Alexa Fluor 647-labeled tracer to the kinase of interest. Binding of the tracer to the kinase is detected using an EU-labeled anti-tag antibody. Simultaneous binding of both the tracer and antibody to the kinase gives rise to a FRET-signal. Binding of an inhibitor to the kinase competes for binding with the tracer, resulting in a loss of FRET-signal.
A given compound was diluted in DMSO to make a stock compound solution. The stock compound solution was serially diluted over eight steps in DMSO. Each diluted compound solution in DMSO was diluted in kinase buffer. Afterwards four kinds of working solution were prepared. First, Tracer-Working solution consists of Tracer 236 and Kinase Buffer. Second, Axl, Mer, Tyro3 or Met/anti-GST-AB-Working solution contained one of the kinases Axl, and Mer or anti-GST-AB (=anti glutathione-S-transferase antibody) in Kinase Buffer. Third, anti-GST-AB-Working solution was made with anti-GST-AB and Kinase Buffer. Last, in the DMSO-Working solution DMSO was added to Kinase Buffer to a final concentration to 3%. Each of the four kinds of working solutions were separately added to the assay plate and then incubated for 1 h at room temperature. After incubation, the assay plate was measured with respect to the FRET-Signal with the EnVision (Perkin Elmer) using the program LanthaHTRF-Assay. Data evaluation was done in the Quattro Workflow software. Kd (the equilibrium dissociation constant) values were calculated relative to vehicle (DMSO) control wells.

CSF1R (M-NFS-60 cells) = experiment: Cell Titer-Glo viability assay using M-NFS-60 cells; format: cell-based; conditions: Mus musculus, read-out: Cellular CSF1R activity by M-NFS-60 viability assay (IC50 activity range)
Experimental: M-NFS-60 cells were cultured in RPMI-1640 medium containing 10% FBS, 0.05 mM 2-Mercaptoethanol, penicillin (100 U/ml)/streptomycin ([…]) and supplemented with 62 ng/ml recombinant human M-CSF at 37° C./5% CO2. Aliquots of the cells were seeded into a 96-well plate (2×10^5 cells in 100 μl/well) and then incubated at 37° C./5% CO2 1 h. Dissolve compound in 100% DMSO to make 10 mM stock solutions (Aliquots stored in the Nitrogen Cabinet). Dilute 10 mM compounds solutions for 2-fold in 100% DMSO to get 5 mM solutions (10 μl+10 μl DMSO), and then make a 3-fold serial dilution (10 μl+20 μl DMSO) for 10 doses. For reference compounds: Dilute 10 mM compounds solutions for 20-fold in 100% DMSO to get 0.5 mM solutions (2 μl+38 μl DMSO), and then make a 3-fold serial dilution (10 μl+20 μl DMSO) for 8 doses. The 96-well plate was equilibrated at room temperature for 30 min. 50 μl of CellTiter-Glo® Reagent added to each well and mixed for 2 min on an orbital shaker to induce cell lysis. The 96-well plate was incubated at room temperature for 10 min to stabilize luminescent signal. Luminescent was measured […] by EnVison plate reader. Calculations and Formulas: The following calculations and formulas are used for data analysis using XL Fit software: The curve fitting was made using the Sigmoidal Dose-Response Model (Fit model, 205).

CCCn1cc(OCCN(C)C)c(C(=O)Nc2ccc(Oc3ccnc4cc(OC)c(OC)cc34)c(F)c2)n1 [Compound 165]
Kd (Mer): ≥ 500 nM
IC50 (CSF1R (M-NFS-60 cells)): 1000 to 10000 nM
